According to patent US8748485B2, “Compound and medical use thereof” (Ono Pharmaceuticals Co., Ltd., priority 2010, dated 2014):

Key:
[1] = Kinetic study in dogs (effect of salt or crystal form on blood kinetics); format: in vivo; details: 6 mg/3 mL/kg expressed in terms of levodopa
Protocol: (2) Kinetic Study in Dogs (Effect of Salt or Crystal Form on Blood Kinetics)
In general, it is considered that when the salt or crystal form is different, a difference in solubility thereof or the like affects blood kinetics and sometimes causes a difference in potency of efficacy.
The collection of a plasma sample was carried out according to the previous section (1). However, the dose was set to 6 mg/3 mL/kg.
The preparation of an analytical sample and analysis were carried out according to the previous section (1).
In the above Table 6, a change over time in the concentration (μg/mL) of levodopa observed in the plasma when the compound of the present invention produced in Example 6, the compound of the present invention produced in Example 9, or the compound of the present invention produced in Example 10 was orally administered to dogs is shown. The numeral expressed with ± in the parenthesis represents a standard deviation.

[2] = system: rat model injected with 6-hydroxydopamine into the medial forebrain bundle; assay: Rotation test in model injected with 6-hydroxydopamine into medial forebrain bundle; format: in vivo, rats (male Crl:CD(SD)IGS); details: 6-OHDA rats
Excerpt: In the experiment, male Crl:CD(SD)IGS rats (Charles River Japan, Inc.) supplied at 5 weeks of age were used. The rats were housed in Econ cages (4 or less rats per cage) and were raised by giving free access to solid feed CRF-1 (Oriental Yeast Co., Ltd.) and tap water (in a water bottle) until they were subjected to the experiment. When acclimation after shipping was completed, each of the Crl:CD(SD)IGS rats at 6 weeks of age was anesthetized with pentobarbital sodium (Somnopentyl (registered trademark) injectable solution, 35 mg/kg, intraperitoneal injection). Subsequently, for the purpose of preventing damage to norepinephrine neurons by 6-hydroxydopamine (6-OHDA), desipramine (25 mg/kg) was intraperitoneally injected, and the rat was held and fixed by a brain fixation device. A small bone window was opened with a hand drill at a desired site, and 6-OHDA was injected into the medial forebrain bundle according to the brain atlas of Paxinos and Watson using a 30 G cannula (Brain Science Idea. Co. Ltd.) with a needle tip cut at an angle of 45° (site of injection: A=−4.5 mm, L=+1.2 mm, and V=−7.8 mm with respect to the bregma, injection amount: 8 μg/4 μL/8 min/site in each case). […] Thereafter, the burr hole was closed with an instant glue, and then sutured and disinfected with iodine tincture. […] In a rotation test, a device configured such that a black plastic circular cylinder having a diameter of 30 cm and a height of 35 cm was placed upright in a black-painted bowl having an opening diameter of 35 cm and a bottom diameter of 17 cm was used (the height of the curve from the bottom of the bowl to the bottom edge of the cylinder was set to 7 cm). The rat was placed in the device (one rat per device) and acclimated to the device for 30 minutes. Thereafter, a test substance was administered to the rat, and the rat was returned to the same device and videotaped. […] As for the number of rotations, a 360° rotation in one direction was determined to be one rotation. In the case where the direction (body's direction of movement or movement direction) was changed during rotation, the rotation was not included in the count. […] Incidentally, in each case, benserazide which is a dopa decarboxylase inhibitor (8 mg/kg) was orally administered concomitantly. […] In addition, the respective values are each a mean of the values obtained using 11 rats in each group and its standard error.

[3] = Kinetic study in dogs (oral administration, plasma levodopa)
Excerpt: The relationship between the blood concentration of levodopa and side effects in patients who take levodopa has been gradually elucidated. […] In order to reduce the number of doses of levodopa and avoid side effects such as dyskinesia and wearing-off in patients who take levodopa, it is necessary to maintain the blood concentration of levodopa within a therapeutic range as long as possible.
These levodopa prodrugs are prodrugs containing an ester bond, and therefore, it is considered that among a number of enzymes, carboxyesterase plays the most important role in the process of producing levodopa by metabolizing the compound after the compound is administered in vivo. Therefore, as an animal species to be used for performing a kinetic study, dogs in which the organ distribution of carboxyesterase is most similar to that of humans were selected as subjects for evaluation.
The thus obtained drug solution was administered by gavage through a gastric tube into the stomach of dogs (male beagle dogs) which were fasted from the day before the administration. At 15 and 30 minutes, and 1, 2, 4, 6, and 8 hours after administration of the drug solution, 1 mL of blood was collected from a cephalic vein with a heparinized syringe. Immediately after the collection, the collected blood was centrifuged in a desktop centrifuge at 14500 rpm for 45 seconds. Then, acetonitrile containing 0.1125% formic acid was added to the thus obtained plasma in an amount as twice as large as the volume of the plasma, followed by stirring, and then, the resulting sample was stored at −20° C. until measurement.
The sample was thawed on the measurement day, followed by stirring and centrifugation at 13000 rpm for 3 minutes (at 4° C.). The resulting supernatant was filtered and the filtrate was analyzed by LC/MS/MS. The analysis was performed by LC/MS/MS under the following conditions.
Measurement Apparatus: API-5000 (manufactured by Applied Biosystems, Inc.)
Analytical column: CAPCELL PAK CR (1:4) (4.6 mm, I.D.×250 mm, 5 μm)
Analytical column temperature: 40° C.
Mobile phase: A: 5 mM ammonium formate (pH 3.9), B: acetonitrile (A/B=17/3)
Detection (levodopa): m/z (precursor): 196.19, m/z (product): 134.99
DP (Declustering Potential): −60
CE (Collision Energy): −25
CXP (Collision Cell Exit Potential): −17
Incidentally, the numerical value in the column which indicates the dose expressed in terms of levodopa refers to a dose equivalent to that of levodopa.

[4] = in vivo; cited from earlier work
[5] = system: p53R2; assay: Mutagenicity assay using mammalian cells (NESMAGET method); format: cell-based; details: for Mutagenicity assay (NESMAGET) Concentration at which mutagenicity was determined to be positive: concentration at which relative luciferase activity of p53R2 exceeded 200% (vehicle control 0.3% dimethylsulfoxide = 100%); for determination of mutagenicity: positive = relative luciferase activity of p53R2 exceeded 200%, compound of the present invention up to 200 μg/mL
Protocol: In the treatment of Parkinson's disease and/or Parkinson's syndrome, there is a possibility that a levodopa prodrug is continued to be taken over a long period of time of several years to several decades. Therefore, an evaluation was carried out as to whether or not the compound of the present invention has mutagenicity by a mutagenicity assay using mammalian cells.
A mutagenicity assay using mammalian cells was carried out as a commissioning test to be undertaken by Nissin Foods Holdings Co., Ltd. The present method also called NESMAGET method is a method in which the expression of p53R2 which is a DNA repair gene is detected by luciferase activity, and the specific experimental technique is described in JP-A-2005-000024 and Japanese Patent No. 4243716. In the determination as to whether or not the result of this test was positive, the luciferase activity of p53R2 in the case of a vehicle control (0.3% dimethylsulfoxide) was taken as 100%, and a concentration at which a relative luciferase activity exceeded 200% was determined to be “concentration at which mutagenicity was determined to be positive”.

[6] = male, beagle, dog, in vivo, po, 3 mg/kg

SMILES: CC(C)(OC(=O)c1ccccc1)C(=O)Oc1ccc(C[C@H](N)C(=O)O)cc1OC(=O)C(C)(C)OC(=O)c1ccccc1.Cc1ccc(S(=O)(=O)O)cc1 [Example 6, (2S)-2-amino-3-(3,4-bis((2-(benzoyloxy)-2-methylpropanoyl)oxy)phenyl)propanoic acid tosylate]
- Absorption through oral administration [1]: can be absorbed through oral administration

SMILES: CC(C)(OC(=O)c1ccccc1)C(=O)Oc1ccc(C[C@H](N)C(=O)O)cc1OC(=O)C(C)(C)OC(=O)c1ccccc1 [Example 9, (2S)-2-amino-3-(3,4-bis((2-(benzoyloxy)-2-methylpropanoyl)oxy)phenyl)propanoic acid]
- Absorption through oral administration [1]: can be absorbed through oral administration
- rotational behavior compared with the compound produced in Example 5 ([2]; used in place of Example 5): the same results were obtained

SMILES: CC(C)(OC(=O)c1ccccc1)C(=O)Oc1ccc(C[C@H](N)C(=O)O)cc1OC(=O)C(C)(C)OC(=O)c1ccccc1 [Example 10, (2S)-2-amino-3-(3,4-bis((2-(benzoyloxy)-2-methylpropanoyl)oxy)phenyl)propanoic acid]
- Absorption through oral administration [1]: can be absorbed through oral administration

SMILES: N[C@@H](Cc1ccc(O)c(O)c1)C(=O)O [Levodopa, L-3,4-dihydroxyphenylalanine]
- AUC (area under the blood concentration-time curve of levodopa) ([3]; levodopa in plasma, fasted male beagle dogs, oral gavage, dose 3 mg/kg expressed in terms of levodopa): 0.96 μg^+ hr/mL
- Cmax/C6 hr (ratio of maximum plasma concentration and plasma concentration at 6 hours after oral administration, levodopa) [3, 6]: 913.8
- AUC ([3]; male, beagle, dog, plasma, po, 3 mg/kg): 960 ng·h/mL
- time after administration at which the number of rotations reached a maximum value ([2]; oral, levodopa 30 mg/kg or Example 5 100 mg/kg expressed in terms of levodopa, benserazide 8 mg/kg): 20 min
- maximum value of the number of rotations per 10 minutes ([2]; oral, levodopa 30 mg/kg or Example 5 100 mg/kg expressed in terms of levodopa, benserazide 8 mg/kg concomitantly, N=11): about 100 times
- percentage of the absorbed levodopa distributed in the central nervous system [4]: less than 1%
- share of the absorbed levodopa metabolized by aromatic L-amino acid decarboxylase (AADC) in organs other than the central nervous system [4]: ≥ 95%

SMILES: CC(C)(COC(=O)c1cccs1)C(=O)Oc1ccc(C[C@H](N)C(=O)O)cc1OC(=O)C(C)(C)COC(=O)c1cccs1.Cl [Reference Example 6, (2S)-2-Amino-3-(3,4-bis((2,2-dimethyl-3-((thiophene-2-carbonyl)oxy)propanoyl)oxy)phenyl)propanoic acid hydrochloride]
- AUC (area under the blood concentration-time curve of levodopa) ([3]; dog, in vivo, po, 3 mg/kg): 0.66 μg^+ hr/mL
- Cmax/C6 hr (ratio of maximum plasma concentration and plasma concentration at 6 hours after oral administration, levodopa) [3, 6]: 14.7
- Mutagenicity assay (NESMAGET) Concentration at which mutagenicity was determined to be positive [5]: 2.4 µg/mL
- determination of mutagenicity [5]: positive for mutagenicity

SMILES: CC(C)(COC(=O)c1ccsc1)C(=O)Oc1ccc(C[C@H](N)C(=O)O)cc1OC(=O)C(C)(C)COC(=O)c1ccsc1.Cl [Reference Example 11, (2S)-2-Amino-3-(3,4-bis((2,2-dimethyl-3-((thiophene-3-carbonyl)oxy)propanoyl)oxy)phenyl)propanoic acid hydrochloride]
- AUC (area under the blood concentration-time curve of levodopa) ([3]; dog, in vivo, po, 3 mg/kg): 0.52 μg^+ hr/mL
- Cmax/C6 hr (ratio of maximum plasma concentration and plasma concentration at 6 hours after oral administration, levodopa) [3, 6]: 23.9
- Mutagenicity assay (NESMAGET) Concentration at which mutagenicity was determined to be positive [5]: 1.4 µg/mL
- determination of mutagenicity [5]: positive for mutagenicity

SMILES: COc1ccccc1C(=O)OCC(C)(C)C(=O)Oc1ccc(C[C@H](N)C(=O)O)cc1OC(=O)C(C)(C)COC(=O)c1ccccc1OC.Cl [Reference Example 16]
- AUC (area under the blood concentration-time curve of levodopa) ([3]; dog, in vivo, po, 3 mg/kg): 0.22 μg^+ hr/mL
- Cmax/C6 hr (ratio of maximum plasma concentration and plasma concentration at 6 hours after oral administration, levodopa) [3, 6]: 7.4
- Mutagenicity assay (NESMAGET) Concentration at which mutagenicity was determined to be positive [5]: 84 µg/mL
- determination of mutagenicity [5]: positive for mutagenicity

SMILES: CC(C)(COC(=O)c1ccccc1)C(=O)Oc1ccc(C[C@H](N)C(=O)O)cc1OC(=O)C(C)(C)COC(=O)c1ccccc1.Cl [Reference Example 40, (S)-2-Amino-3-(3,4-bis((3-(benzoyloxy)-2,2-dimethylpropanoyl)oxy)phenyl)propanoic acid hydrochloride]
- AUC (area under the blood concentration-time curve of levodopa) ([3]; dog, in vivo, po, 3 mg/kg): 0.81 μg^+ hr/mL
- Cmax/C6 hr (ratio of maximum plasma concentration and plasma concentration at 6 hours after oral administration, levodopa) [3, 6]: 4.3
- Mutagenicity assay (NESMAGET) Concentration at which mutagenicity was determined to be positive [5]: 16 µg/mL
- determination of mutagenicity [5]: positive for mutagenicity
